According to patent publication US12508323B2, “Method of treatment of colorectal, breast and lung cancer with metal containing immune agonist complexes” (HANGZHOU XINGAO BIOTECHNOLOGY CO., LTD., priority 2020, dated 2025):

What was measured:
[1] = test system: colorectal cancer cell line CT26; assay: Subcutaneous transplantation tumor model, CT26 in BALB/C mice; type: in vivo; settings: i.p. 10 mg/kg (nanobody 200 μg/mouse) once a day for 21 days
Method: Specific pathogen free (SPF)-grade BALB/C and C57BL/6 male mice, aged 7-8 weeks and weighing 20-22 g, were purchased from Shanghai Slac Laboratory Animal Co., Ltd (Laboratory animal quality certificate number: SCXK (Shanghai)2007-0005.
Mice were injected intraperitoneally with the immune agonist or complex with a dose of 10 mg/kg, or each injected intraperitoneally with 200 μg of the nanobody.
(§1) Administration route: intraperitoneal injection.
(§2) Frequency: once a day for consecutive 21 days.
Cancer cells were cultured, passaged, collected at the logarithmic phase of cells, and prepared into a cell suspension at a concentration of (1.0×10^7) per ml. Mice were injected with 0.2 ml of the cell suspension at the axilla of the right forelimb (cell number 2.0×10^6 cells/each), and were tumorigenic in about 8 days. These mice were randomly divided into 10 groups equally, namely, group A: negative control group (saline group), group B: positive control (cGAMP) group (dose: 10 mg/kg), group C: MncGAMP group (dose: 10 mg/kg), group D: anti-PD-L1 nanobody group, group E: anti-CD47 nanobody group, group F: anti-TfR1 nanobody group, group G: complex V group (dose: 10 mg/kg), group H: complex VI group (dose: 10 mg/kg), group I: complex IX group (dose: 10 mg/kg), and group J: complex VIII group (10 mg/kg). […]
The data were expressed as ×±s and processed by SPSS10.0 software. […]

[2] = test system: murine breast cancer cell line 4T1-luc; assay: Anti-metastasis of murine breast cancer 4T1-luc, in vivo optical imaging; settings: 4T1-luc in BALB/C mice, i.p. 10 mg/kg (nanobody 200 μg/mouse) once a day, sites of metastasis
Method: Specific pathogen free (SPF)-grade BALB/C male mice, aged 7-8 weeks and weighing 20-22 g, were purchased from Shanghai Slac Laboratory Animal Co., Ltd (Laboratory animal quality certificate number: SCXK (Shanghai)2007-0005.
Mice were injected intraperitoneally with the immune agonist complex or MncGAMP with a dose of 10 mg/kg, or each injected intraperitoneally with 200 μg of the nanobody.
as §1, §2
Used herein was murine breast cancer cell line 4T1-luc (luciferase labeled tumor cells), which was provided by medical department of Zhejiang University School. The 4T1-luc cell line in BALB/C mice had similar growth and metastatic properties to breast tumors in humans, which was an animal model for […] breast cancer in humans. The 4T1-luc cell line spontaneously produced highly metastatic tumors that metastasize to the lung, liver, lymph nodes, and brain, while forming the primary site at the injection site. Luciferase was a general term for a class of enzymes in living organisms that catalyze the oxidative luminescence of luciferin or firefly aldehyde, which was derived from organisms naturally capable of luminescence.
Cancer cells were cultured, passaged, collected at the logarithmic phase of cells, and prepared into a cell suspension at a concentration of (1.0×10^7) per ml. Mice were injected with 0.2 ml of the cell suspension at the axilla of the right forelimb (2.0×10^6 cells/each), and were injected with drugs the day after inoculation with breast cancer cells. […]
Metastasis of murine breast cancer in mice was detected using a small animal in vivo optical imaging system (Perkin Elmer, IVIS Lumina XRMS Series III) on days 5, 10, 20, and 30 after drug administration, respectively, which was done at Shanghai Medical College of Fudan University.

[3] = test system: mice with localized cerebral ischemia; assay: Local cerebral ischemia model (wire bolus method), Zea Longa 5-point behavioral score; type: in vivo; settings: ICR mice, 10 mg/kg i.p., Zea Longa 5-point scale (0 normal to 4)
Excerpt: Healthy male ICR mice, weighing 18-20 g, were purchased from Shanghai Slaughter Laboratory Animal Co (quality certificate number (SCXK(SH) 2007-0005)) and raised in a cleaning experimental animal room.
Local cerebral ischemia model was made by wire bolus method to verify the therapeutic effects of immune agonist complexes on cerebral ischemic brain diseases in experimental animals.
Experimental mice were anesthetized with 10% chloral hydrate intraperitoneally, and a median cervical incision was made to separate and ligate the proximal segment of the right common carotid artery, the carotid artery and branch vessels thereof. The right internal carotid artery was isolated, the pterygopalatine artery was isolated downward along the internal carotid artery, and the root was ligated for this branch. The proximal end of the internal carotid was provided with a prepared wire, and the distal end of the internal carotid was provided with an artery clip. […] Behavioral scoring was performed after surgery, and the scoring was single-blinded with reference to the Zea Longa 5-point scale, which was scored as follows: 0, normal mice with no signs of neurological injury; 1, unable to fully extend the contralateral front paw; 2, turning in a circle to the outside; 3, relatively measured tipping; and 4, unable to walk spontaneously, and loss of consciousness injury. […]

## Nc1nc(=O)c2ncn(C3OC4COP(=O)(O)OC5C(COP(=O)(O)OC3C4O)OC(n3cnc4c(N)ncnc43)C5O)c2[nH]1 (stereo not shown) [cGAMP, 2′3′-cGAMP]
[1]; n = 10, mean ± SD
  Average tumor weight: 0.784 ± 0.135 g
[1]; vs negative control tumor weight
  Average tumor inhibition rate (%): 65.0%
[2]; day 5 after drug administration
  Metastasis of breast cancer, Day 5: No
[2]; day 10 after drug administration
  Metastasis of breast cancer, Day 10: No
[2]; day 20 after drug administration
  Metastasis of breast cancer, Day 20: No
[3]
  Behavioral scores (24 hours after surgery): 2.26 ± 0.40
  Behavioral scores (7 days after surgery): 1.65 ± 0.34
